Measured values published in the NIST ThermoML archive (doi:10.1021/je800087p).
± gives the expanded uncertainty stated by the source.

How the values were obtained:
[1] = refractive index (Na D-line) (dimensionless); details: 298.15 K; 101.3 kPa; Liquid; Standard Abbe refractometry
[2] = Liquid; Ebulliometric method (Recirculating still)

Row | refractive index [1] | Normal boiling temperature [2] [°C] | Compound
1 | 1.41899 ± 0.00063 | 88.16 ± 0.1 | C1CCOCC1 [tetrahydropyran]
2 | 1.40443 ± 0.0005 | 66.1 ± 0.1 | C1CCOC1 [tetrahydrofuran]
3 | 1.48829 ± 0.00053 | 152.48 ± 0.1 | CC(C)c1ccccc1 [isopropylbenzene]
